Source: BigSolDB 2.1

CN1COCN(Cc2cnc(Cl)s2)C1=N[N+](=O)[O-]
solubility (mole fraction)
Details	278.15 K	283.15 K	288.15 K	293.15 K	298.15 K	303.15 K	308.15 K	313.15 K	318.15 K	323.15 K
in 1,4-dioxane	–	–	0.00255	0.00328	0.00404	0.00523	0.00637	0.00792	0.00985	0.0123
in 2-ethoxyethanol	0.00319	0.00411	0.00523	0.00627	0.00722	0.00839	0.01	0.0117	0.0141	0.0168
in 2-methoxyethanol	0.00727	0.00895	0.011	0.013	0.0152	0.0185	0.0218	0.026	0.0311	0.0374
in DMAc	0.0679	0.074	0.0817	0.0902	0.0988	0.108	0.12	0.133	0.145	0.157
in DMSO	–	–	0.0689	0.0786	0.0902	0.103	0.117	0.134	0.152	0.172
in acetic acid	–	–	–	0.013	0.0172	0.0227	0.0292	0.0387	0.0547	0.07
in acetonitrile	0.00704	0.00827	0.0105	0.0125	0.0149	0.0183	0.0227	0.0278	0.0344	0.0422
in methanol	0.000628	0.000817	0.00111	0.00141	0.00169	0.00225	0.00294	0.00397	0.00486	0.0063
in propionic acid	0.000769	0.00113	0.00147	0.00185	0.00252	0.00329	0.00406	0.00562	0.00739	0.00939
